One experiment addresses mouse TAAR1 (Mus musculus (Mouse), UniProt Q923Y8). The experiment can be described thus: Radioligand binding assay on mouse TAAR1. Particulars: membranes of HEK-293 cells stably expressing mouse TAAR1; first value of cell mouse/rat. On the procedure: (§1) Construction of TAAR Expression Plasmids and Stably Transfected Cell Lines
(§2) For the construction of expression plasmids the coding sequences of human, rat and mouse TAAR 1 were amplified from genomic DNA essentially as described by Lindemann et al.. The Expand High Fidelity PCR System (Roche Diagnostics) was used with 1.5 mM Mg^2+ and purified PCR products were cloned into pCR2.1-TOPO cloning vector (Invitrogen) following the instructions of the manufacturer. PCR products were subcloned into the pIRESneo2 vector (BD Clontech, Palo Alto, Calif.), and expression vectors were sequence verified before introduction in cell lines.
(§3) HEK293 cells (ATCC # CRL-1573) were cultured essentially as described by Lindemann et al. (2005). For the generation of stably transfected cell lines HEK293 cells were transfected with the pIRESneo2 expression plasmids containing the TAAR coding sequences (described above) with Lipofectamine 2000 (Invitrogen) according to the instructions of the manufacturer, and 24 hrs post transfection the culture medium was supplemented with 1 mg/ml G418 (Sigma, Buchs, Switzerland). After a culture period of about 10 d clones were isolated, expanded and tested for responsiveness to trace amines (all compounds purchased from Sigma) with the cAMP Biotrak Enzyme immunoassay (EIA) System (Amersham) following the non-acetylation EIA procedure provided by the manufacturer.
Radioligand Binding Assay on Mouse TAAR1
(§4) Membrane Preparation and Radioligand Binding.
HEK-293 cells stably expressing mouse TAAR1 were maintained at 37° C. and 5% CO2 in DMEM high glucose medium, containing fetal calf serum (10%, heat inactivated for 30 min at 56° C.), penicillin/streptomycin (1%), and 375 μg/ml geneticin (Gibco). Cells were released from culture flasks using trypsin/EDTA, harvested, washed twice with ice-cold PBS (without Ca^2+ and Mg^2+), pelleted at 1,000 rpm for 5 min at 4° C., frozen and stored at −80° C. Frozen pellets were suspended in 20 ml HEPES-NaOH (20 mM, pH 7.4) containing 10 mM EDTA and homogenized with a Polytron (PT 6000, Kinematica) at 14,000 rpm for 20 s. The homogenate was centrifuged at 48,000×g for 30 min at 4° C. Subsequently, the supernatant was removed and discarded, and the pellet resuspended in 20 ml HEPES-NaOH (20 mM, pH 7.4) containing 0.1 mM EDTA using the Polytron (20 s at 14,000 rpm). This procedure was repeated and the final pellet resuspended in HEPES-NaOH containing 0.1 mM EDTA and homogenized using the Polytron. Typically, aliquots of 2 ml membrane portions were stored at −80° C. With each new membrane batch the dissociation constant (Kd) was determined via a saturation curve. The TAAR1 radioligand ^3[H]—(S)-4-[(ethyl-phenyl-amino)-methyl]-4,5-dihydro-oxazol-2-ylamine (described in WO 2008/098857) was used at a concentration equal to the calculated Kd value, that was usually around 0.7 nM, resulting in the binding of approximately 0.5% of the radioligand and a specific binding representing approximately 70% of the total binding. Nonspecific binding was defined as the amount of ^3[H]—(S)-4-[(ethyl-phenyl-amino)-methyl]-4,5-dihydro-oxazol-2-ylamine bound in the presence of 10 μM unlabeled ligand. All compounds were tested at a broad range of concentrations ([…]) in duplicates. […] The 96 deep well plates were incubated for 1 hr at 4° C. Incubations were terminated by rapid filtration through Unifilter-96 plates (Packard Instrument Company) and glass filters GF/C (Perkin Elmer) presoaked for 1 hr in polyethylenimine (0.3%) and washed 3 times with 1 ml of cold binding buffer. After addition of 45 μl of Microscint 40 (PerkinElmer) the Unifilter-96 plate was sealed and after 1 hr the radioactivity counted using a TopCount Microplate Scintillation Counter (Packard Instrument Company).

A further experiment deals with rat TAAR1 (Rattus norvegicus (Rat), UniProt Q923Y9). Description: Radioligand binding assay on rat TAAR1. Particulars: membranes of HEK-293 cells stably expressing rat TAAR1; second value of cell mouse/rat. How it is done:
as §1, §2, §3
Radioligand Binding Assay on rat TAAR1
as §4
HEK-293 cells stably expressing rat TAAR1 were maintained at 37° C. and 5% CO2 in DMEM high glucose medium, containing fetal calf serum (10%, heat inactivated for 30 min at 56° C.), penicillin/streptomycin (1%), and 375 μg/ml geneticin (Gibco). Cells were released from culture flasks using trypsin/EDTA, harvested, washed twice with ice-cold PBS (without Ca^2+ and Mg^2+), pelleted at 1,000 rpm for 5 min at 4° C., frozen and stored at −80° C. Frozen pellets were suspended in 20 ml HEPES-NaOH (20 mM, pH 7.4) containing 10 mM EDTA and homogenized with a Polytron (PT 6000, Kinematica) at 14,000 rpm for 20 s. The homogenate was centrifuged at 48,000×g for 30 min at 4° C. Subsequently, the supernatant was removed and discarded, and the pellet resuspended in 20 ml HEPES-NaOH (20 mM, pH 7.4) containing 0.1 mM EDTA using the Polytron (20 s at 14,000 rpm). This procedure was repeated and the final pellet resuspended in HEPES-NaOH containing 0.1 mM EDTA and homogenized using the Polytron. Typically, aliquots of 2 ml membrane portions were stored at −80° C. With each new membrane batch the dissociation constant (Kd) was determined via a saturation curve.
Nonspecific binding was defined as the amount of ^3-[H]-(S)-4-[(ethyl-phenyl-amino)-methyl]-4,5-dihydro-oxazol-2-ylamine bound in the presence of 10 μM unlabeled ligand. All compounds were tested at a broad range of concentrations (10 pM to 10 μM) in duplicates. […] The 96 deep well plates were incubated for 1 hr at 4° C. Incubations were terminated by rapid filtration through Unifilter-96 plates (Packard Instrument Company) and glass filters GF/C (Perkin Elmer) presoaked for 1 hr in polyethylenimine (0.3%) and washed 3 times with 1 ml of cold binding buffer. After addition of 45 μl of Microscint 40 (PerkinElmer) the Unifilter-96 plate was sealed and after 1 hr the ratioactivity counted using a TopCount Microplate Scintillation Counter (Packard Instrument Company).

Counter-ions that a name gives are not always drawn.

rat TAAR1, sequence (Q923Y9 whole entry): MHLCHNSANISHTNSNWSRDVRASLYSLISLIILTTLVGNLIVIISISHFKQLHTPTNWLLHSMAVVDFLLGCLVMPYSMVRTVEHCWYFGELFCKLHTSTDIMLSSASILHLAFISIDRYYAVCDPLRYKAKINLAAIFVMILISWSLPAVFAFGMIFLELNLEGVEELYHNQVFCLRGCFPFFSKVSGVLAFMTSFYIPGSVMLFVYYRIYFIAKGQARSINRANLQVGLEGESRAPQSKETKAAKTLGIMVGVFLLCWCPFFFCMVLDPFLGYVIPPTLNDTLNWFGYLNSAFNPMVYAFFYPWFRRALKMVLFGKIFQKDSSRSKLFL
mouse TAAR1, sequence (Q923Y8 whole entry): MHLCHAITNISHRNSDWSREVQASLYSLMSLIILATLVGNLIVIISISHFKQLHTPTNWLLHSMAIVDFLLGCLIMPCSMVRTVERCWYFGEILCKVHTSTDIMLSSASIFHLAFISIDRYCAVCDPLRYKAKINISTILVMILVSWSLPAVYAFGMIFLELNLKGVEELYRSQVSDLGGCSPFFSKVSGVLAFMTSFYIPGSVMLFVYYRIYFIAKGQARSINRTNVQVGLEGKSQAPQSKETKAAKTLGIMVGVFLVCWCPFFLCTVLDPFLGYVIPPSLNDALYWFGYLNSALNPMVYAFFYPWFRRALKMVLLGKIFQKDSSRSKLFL

`Cn1nc(C(=O)Nc2ccc([C@H]3CNCCO3)cc2)cc1-c1ccccc1` [Example 18, (S)-1-methyl-N-(4-(morpholin-2-yl)phenyl)-5-phenyl-1H-pyrazole-3-carboxamide hydrochloride]: the values for the Ki at mouse TAAR1 and on rat TAAR1 were 0.0017 µM and 0.0254 µM, respectively.

For the molecule `Cn1nc(-c2ccccc2)cc1C(=O)Nc1ccc([C@@H]2CNCCO2)cc1` [Example 19, (R)-1-methyl-N-(4-(morpholin-2-yl)phenyl)-3-phenyl-1H-pyrazole-5-carboxamide hydrochloride], the Ki (in general, a measure of affinity in units of concentration, obtained from inhibition or displacement) is 0.0079 µM at mouse TAAR1 and 0.0028 µM at rat TAAR1.

In the case of `N#Cc1cccc(-c2cc(C(=O)Nc3ccc([C@H]4CNCCO4)cc3)n[nH]2)c1` [Example 20, (S)-5-(3-cyanophenyl)-N-(4-(morpholin-2-yl)phenyl)-1H-pyrazole-3-carboxamide hydrochloride], the Ki at mouse TAAR1 came to 0.0022 µM; on rat TAAR1 it was 0.0074 µM.

With `Cn1nc(-c2ccc(C#N)cc2)cc1C(=O)Nc1ccc([C@H]2CNCCO2)cc1` [Example 21, (S)-3-(4-cyanophenyl)-1-methyl-N-(4-(morpholin-2-yl)phenyl)-1H-pyrazole-5-carboxamide hydrochloride], the Ki came out at 0.0053 µM at mouse TAAR1 and 0.0055 µM on rat TAAR1.

As to `Cn1nc(-c2cccc(C#N)c2)cc1C(=O)Nc1ccc([C@H]2CNCCO2)cc1` [Example 24, (S)-3-(3-cyanophenyl)-1-methyl-N-(4-(morpholin-2-yl)phenyl)-1H-pyrazole-5-carboxamide hydrochloride], the figures for the Ki on mouse TAAR1 and on rat TAAR1 were 0.0067 µM and 0.0142 µM, respectively.

As for `CCn1nc(-c2cccc(C#N)c2)cc1C(=O)Nc1ccc([C@H]2CNCCO2)cc1` [Example 25, (S)-3-(3-cyanophenyl)-1-ethyl-N-(4-(morpholin-2-yl)phenyl)-1H-pyrazole-5-carboxamide hydrochloride], the Ki on mouse TAAR1 was 0.0051 µM; on rat TAAR1, 0.0078 µM.

For the molecule `CCn1nc(-c2ccc(C#N)cc2)cc1C(=O)Nc1ccc([C@H]2CNCCO2)cc1` [Example 26, (S)-3-(4-cyanophenyl)-1-ethyl-N-(4-(morpholin-2-yl)phenyl)-1H-pyrazole-5-carboxamide hydrochloride], the Ki at mouse TAAR1 is 0.0734 µM; on rat TAAR1, 0.0316 µM.

Consider `Cc1c(C(=O)Nc2ccc([C@H]3CNCCO3)cc2)n[nH]c1-c1cccc(C#N)c1` [Example 27, (S)-5-(3-cyanophenyl)-4-methyl-N-(4-(morpholin-2-yl)phenyl)-1H-pyrazole-3-carboxamide hydrochloride], for which the Ki was 0.0021 µM at mouse TAAR1 and 0.0135 µM on rat TAAR1.

With `N#Cc1ccc(F)c(-c2cc(C(=O)Nc3ccc([C@H]4CNCCO4)cc3)n[nH]2)c1` [Example 28, (S)-5-(5-cyano-2-fluorophenyl)-N-(4-(morpholin-2-yl)phenyl)-1H-pyrazole-3-carboxamide hydrochloride], the Ki was 0.0043 µM at mouse TAAR1 and 0.0129 µM at rat TAAR1.

For the molecule `O=C(Nc1ccc([C@H]2CNCCO2)cc1)c1ccn(-c2ccc(F)cc2)n1` [Example 29, (S)-1-(4-Fluorophenyl)-N-(4-(morpholin-2-yl)phenyl)-1H-pyrazole-3-carboxamide hydrochloride], the Ki at mouse TAAR1 worked out at 0.0011 µM; at rat TAAR1, 0.0024 µM.

`O=C(Nc1ccc([C@H]2CNCCO2)cc1)c1ccnn1-c1ccccc1` [Example 30, (S)—N-(4-(Morpholin-2-yl)phenyl)-1-phenyl-1H-pyrazole-5-carboxamide hydrochloride]: the Ki worked out at 0.143 µM at mouse TAAR1 and 1.32 µM on rat TAAR1.

For `O=C(Nc1ccc([C@@H]2CNCCO2)cc1)c1ccn(-c2ccc(F)cc2)n1` [Example 31, (R)-1-(4-Fluorophenyl)-N-(4-(morpholin-2-yl)phenyl)-1H-pyrazole-3-carboxamide hydrochloride], the Ki on mouse TAAR1 is 0.0013 µM; on rat TAAR1 it was 0.0024 µM.

For the molecule `O=C(Nc1ccc([C@H]2CNCCO2)cc1)c1ccn(-c2ccc(Cl)cn2)n1` [Example 32, (S)-1-(5-Chloropyridin-2-yl)-N-(4-(morpholin-2-yl)phenyl)-1H-pyrazole-3-carboxamide hydrochloride], the values for the Ki at mouse TAAR1 and at rat TAAR1 were 0.0007 µM and 0.0011 µM, respectively.

Consider `O=C(Nc1ccc([C@H]2CNCCO2)cc1)c1ccn(-c2ccc(C(F)(F)F)cn2)n1` [Example 33, (S)—N-(4-(Morpholin-2-yl)phenyl)-1-(5-(trifluoromethyl)pyridin-2-yl)-1H-pyrazole-3-carboxamide hydrochloride], for which the values for the Ki on mouse TAAR1 and at rat TAAR1 were 0.0028 µM and 0.0016 µM, respectively.

For the molecule `N#Cc1ccc(-n2ccc(C(=O)Nc3ccc([C@H]4CNCCO4)cc3)n2)cc1` [Example 34, (S)-1-(4-Cyanophenyl)-N-(4-(morpholin-2-yl)phenyl)-1H-pyrazole-3-carboxamide hydrochloride], the Ki on mouse TAAR1 is 0.0037 µM; at rat TAAR1 it was 0.0092 µM.

With `O=C(Nc1ccc([C@@H]2CNCCO2)cc1)c1ccn(-c2ccc(C(F)(F)F)cn2)n1` [Example 35, (R)—N-(4-(Morpholin-2-yl)phenyl)-1-(5-(trifluoromethyl)pyridin-2-yl)-1H-pyrazole-3-carboxamide hydrochloride], the Ki at mouse TAAR1 turned out to be 0.0022 µM; at rat TAAR1, 0.0006 µM.

As to `N#Cc1cccc(-c2cc(C(=O)Nc3ccc([C@@H]4CCCNC4)cc3)[nH]n2)c1` [Example 36, (S)-3-(3-Cyanophenyl)-N-(4-(piperidin-3-yl)phenyl)-1H-pyrazole-5-carboxamide hydrochloride], the Ki came to 0.0014 µM at mouse TAAR1 and 0.0138 µM on rat TAAR1.

On to `N#Cc1cccc(-c2cc(C(=O)Nc3ccc([C@H]4CCCNC4)cc3)[nH]n2)c1` [Example 37, (R)-3-(3-Cyanophenyl)-N-(4-(piperidin-3-yl)phenyl)-1H-pyrazole-5-carboxamide hydrochloride], for which the Ki at mouse TAAR1 turned out to be 0.0017 µM; at rat TAAR1, 0.0027 µM.

With `N#Cc1cc(-c2cc(C(=O)Nc3ccc([C@H]4CNCCO4)cc3)[nH]n2)ccc1F` [Example 39, (S)-5-(3-Cyano-4-fluorophenyl)-N-(4-(morpholin-2-yl)phenyl)-1H-pyrazole-3-carboxamide hydrochloride], the Ki on mouse TAAR1 came to 0.0014 µM; at rat TAAR1 it was 0.003 µM.

Source of the values: patent US9073911B2, “Pyrazole derivatives” (HOFFMANN-LA ROCHE INC., priority 2011, dated 2015).
